From US20060173009A1, “Agent inducing increase in bone mass” (priority 2003, published 2006)

What was measured:
[1] = system: osteoporosis model (rat OVX); test: Osteoporosis model (rat OVX), Test 1: 12 weeks administration, compound A and incadronate; format: in vivo; details: for femoral bone strength (three-point bending test) / femoral cortical bone mineral density (pQCT) / femoral cortical bone thickness (pQCT): OVX rats, compound A 30 mg/kg twice a day oral, incadronate 1 mg/kg once a day oral; for femoral bone strength (three-point bending test): in comparison with Control Group 1 (FIG. 1); for femoral cortical bone mineral density (pQCT): in comparison with Control Group 1 (FIG. 2); for femoral cortical bone thickness (pQCT): in comparison with Control Group 1 (FIG. 3)
Description: (§1) Female SD rats of 16 weeks of age (Charles River Japan) were used in the test. Under anesthesia, both sides of ovaries were exposed, and ovaries of all groups excluding the sham operation group were ligated and extracted. In the sham operation group, only an operation of exposing ovaries to the outside of abdomen was carried out.
(§2) Preparation of the aforementioned model was carried out by referring to the method of Kalu et al., (Bone Miner., vol. 15, p. 175 (1991)) and the method of Frost et al., (Bone Miner., vol. 18, p. 227 (1992)).
Before carrying out the ovariectomy (OVX), bone mineral density at 5 mm from the tibial proximal end was measured by pQCT. By leaving for 8 weeks after the OVX, significant reduction of the bone mineral density was confirmed. […] The bone density was measured every 4 weeks after the administration, and urine samples were collected during 24 hours from the previous day of the completion of observation period. After completion of the urine collection, they were sacrificed by exsanguinations under ether anesthesia, and samples were collected.
Bone strength of the femoral diaphysis was measured by three-point bending test (TK-252c, mfd. by Muromachi Kikai). A femur was gently put on a supporting table of 20 mm in distance between supporting points, a bending load was applied on the midpoint of femur at a rate of 10 mm/min, and a load-deformation curve was recorded until its breakage. Maximum value of the load-deformation curve was used as the ultimate force, and the slope of the linear portion of the load-defomation curve was used as the stiffness.
Using a peripheral quantitative computed tomography (PQCT, XCT960A, mfd. by Norland-Stratec), cross-section of the bone was scaned, and bone mineral density and the like various parameters were calculated by analyzing the image.
As a bone metabolism marker, measurement of lysylpyridinoline (deoxypyridinoline hereinafter) value was carried out by SRL MediSearch using an HPLC method (Uebelhart, D et al., Bone Miner., vol. 8, p. 87 (1990)). In order to exclude influence of urine volume, the thus obtained deoxypyridinoline value was corrected by dividing the value by urine creatinine concentration or multiplying the 24 hour urine volume.
The compound of Production Example 93 (6-(4-fluoropiperidin-1-yl)-3-(6-methoxypyridin-2-yl)-1,2,4-triazolo[4,3-b]pyridazine: to be referred to as compound A hereinafter) which is a typical compound of the compound (I) was used as the non-living body-derived non-peptide osteoblast differentiation promoting compound of the invention, and incadronate (Bisphonal (registered trademark)) as the bisphosphonate, respectively. Groups in which the compound A or incadronate alone and a parathyroid hormone hPTH(1-34) are to be administered were used as comparative groups. In addition, the drug-non-administered OVX group and the sham operation group were used as control groups. The compound A was orally administered twice a day as a 0.5% methyl cellulose suspension of 30 mg/5 ml/kg, and incadronate was orally administered once a day as an aqueous solution of 1 mg/2.5 ml/kg. The hPTH(1-34) was subcutaneously administered once a day as a physiological saline solution of 3 μg/1 ml/kg. To the control groups was orally administered 0.5% methyl cellulose twice a day.

[2] = system: osteoporosis model (rat OVX); test: Osteoporosis model (rat OVX), Test 2: 4 weeks administration, compound A and alendronate; format: in vivo; details: Test 2, OVX rats, 24 hour urine 5 weeks after the administration, EIA method (FIG. 7)
Description: as §1, §2
Before carrying out the ovariectomy (OVX), bone mineral density of tibial metaphysis at 5 mm from the tibial proximal end was measured by pQCT. By leaving for 8 weeks after the OVX, significant reduction of the bone mineral density of tibial metaphysis was confirmed by re-measurement. […] After 4 weeks of the administration, the cortical bone thickness and bone mineral density of the tibial diaphysis were measured in the same manner as described in the above. In addition, urine samples were collected during 24 hours 5 weeks after the administration, and the urinary deoxypyridinoline was measured by an EIA method (Osteolinks “DPD”, mfd. by Sumitomo Pharmaceutical Biomedical). […]

Structure (SMILES)	femoral bone strength (three-point bending test) [1]	femoral cortical bone mineral density (pQCT) [1]	femoral cortical bone thickness (pQCT) [1]	urinary deoxypyridinoline value (urine volume correction), bone resorption index ([1]; Test 1, OVX rats, 24 hour urine, HPLC method (FIG. 4))	urinary deoxypyridinoline value (urine volume correction), bone resorption index [2]
COc1cccc(-c2nnc3ccc(N4CCC(F)CC4)nn23)n1 [compound A, 6-(4-fluoropiperidin-1-yl)-3-(6-methoxypyridin-2-yl)-1,2,4-triazolo[4,3-b]pyridazine]	increasing tendency	increasing tendency	increasing tendency	increased	increased
O=P(O)(O)C(NC1CCCCCC1)P(=O)(O)O [incadronate, reference compound]	increasing tendency	increasing tendency	increasing tendency		
